According to US11161856B2 (H. Lundbeck A/S, priority 2017, dated 2021):
Read-outs that look alike come from different tables or passages of the source.

How the values were obtained:
Format in all cases: biochemical
[1] = biological target: T1, MGLL (Mus musculus, UniProt O35678); assay: In vitro competitive activity-based protein profiling, mouse brain proteome (MGLL); set-up: IC50 MGLL Brain (Mouse, μM): scale not given here; settings: for % Inh MGLL Brain (Mouse, μM): concentration not given (μM)
T1 construct: Brain; from tissue; host or cells: mouse brain proteome
T1 sequence (O35678 1-303): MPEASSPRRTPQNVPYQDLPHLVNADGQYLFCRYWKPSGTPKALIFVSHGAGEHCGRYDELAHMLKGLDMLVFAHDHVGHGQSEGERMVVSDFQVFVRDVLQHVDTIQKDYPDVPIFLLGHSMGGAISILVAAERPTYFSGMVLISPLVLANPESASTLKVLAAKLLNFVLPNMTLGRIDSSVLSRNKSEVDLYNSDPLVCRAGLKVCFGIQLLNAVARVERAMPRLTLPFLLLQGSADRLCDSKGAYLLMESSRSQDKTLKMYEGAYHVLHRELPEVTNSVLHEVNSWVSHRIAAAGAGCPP

[2] = biological target: T2, MAGL (Homo sapiens, UniProt Q99685); assay: In vitro competitive activity-based protein profiling (FP-Rh or HT-01 probe, gel-based); set-up: IC50 MGLL PC3 (Human, μM) / IC50 MGLL PFC (Human, μM): scale not given here; settings: for % Inh MGLL PC3 (Human, μM) / % Inh MGLL PFC (Human, μM): concentration not given (μM)
T2 construct: Proteomes (human prefrontal cortex or cell membrane fractions); from tissue
T2 sequence (Q99685 1-303): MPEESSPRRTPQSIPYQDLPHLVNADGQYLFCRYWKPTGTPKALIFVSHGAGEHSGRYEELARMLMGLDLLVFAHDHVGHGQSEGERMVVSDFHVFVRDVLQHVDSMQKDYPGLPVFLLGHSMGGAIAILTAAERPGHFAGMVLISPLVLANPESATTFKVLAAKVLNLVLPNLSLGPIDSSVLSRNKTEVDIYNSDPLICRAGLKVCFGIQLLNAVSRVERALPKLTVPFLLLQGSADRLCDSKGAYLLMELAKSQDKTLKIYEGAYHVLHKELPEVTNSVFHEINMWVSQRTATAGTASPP
Summary of the method: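 Human prefrontal cortex or cell membrane proteomes (1.0 mg/mL total protein) were preincubated with varying inhibitor concentrations for 30 min at 37° C. FP-Rh or HT-01 probe (50 μM DMSO stock) was then added for 30 min at room temperature, and samples were quenched in SDS loading buffer and resolved by SDS-PAGE.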

[3] = biological target: T3, ABHD6 (Mus musculus, UniProt Q8R2Y0); assay: In vitro competitive activity-based protein profiling, mouse brain proteome (ABHD6); settings: mouse brain proteome; concentration not given (μM)
T3 construct: Brain; from tissue; host or cells: mouse brain proteome
T3 sequence (Q8R2Y0 1-336): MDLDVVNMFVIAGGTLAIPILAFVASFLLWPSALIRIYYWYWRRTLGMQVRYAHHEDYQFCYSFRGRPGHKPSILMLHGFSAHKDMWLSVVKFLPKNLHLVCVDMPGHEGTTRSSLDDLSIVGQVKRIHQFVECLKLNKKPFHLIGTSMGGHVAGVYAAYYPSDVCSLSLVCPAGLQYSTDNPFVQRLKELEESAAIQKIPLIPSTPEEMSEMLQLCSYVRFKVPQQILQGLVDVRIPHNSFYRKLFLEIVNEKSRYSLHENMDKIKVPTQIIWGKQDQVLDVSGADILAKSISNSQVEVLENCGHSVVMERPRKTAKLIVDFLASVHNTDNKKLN
Description: [The source words this procedure for another target and reports this target under the same test.] In Vitro Competitive Activity-Based Protein Profiling.
Proteomes (human prefrontal cortex or cell membrane fractions) (50 μL, 1.0 mg/mL total protein concentration) were preincubated with varying concentrations of inhibitors at 37° C. After 30 min, FP-Rh or HT-01 (1.0 μL, 50 μM in DMSO) was added and the mixture was incubated for another 30 min at room temperature. Reactions were quenched with SDS loading buffer (15 μL-4×) and run on SDS-PAGE.

[4] = prefrontal cortex (PFC) proteome

| Compound | % Inh MGLL Brain (Mouse, μM) [1] | IC50 MGLL PC3 (Human, μM) ([2]; PC3 cell proteome) | % Inh MGLL PC3 (Human, μM) ([2]; PC3 cell proteome) | % Inh ABHD6 Brain (Mouse, μM) [3] | % Inh MGLL PFC (Human, μM) [2, 4] | IC50 MGLL Brain (Mouse, μM) [1] | IC50 ([2]; PC3 cell proteome, read-out: IC50 MGLL PC3 (Human)) | IC50 ([2]; prefrontal cortex (PFC) proteome, read-out: IC50 MGLL PFC (Human)) |
| --- | --- | --- | --- | --- | --- | --- | --- | --- |
| CC(C)(C#Cc1cc(C(F)(F)F)ccc1CN1CCCC12CCN(C(=O)OC(C(F)(F)F)C(F)(F)F)CC2)C(=O)O [Example 5, 4-(2-((8-(((1,1,1,3,3,3-Hexafluoropropan-2-yl)oxy)carbonyl)-1,8-diazaspiro[4.5]decan-1-yl)methyl)-5-(trifluoromethyl)phenyl)-2,2-dimethylbut-3-ynoic acid] | ### (### is ≥75%) | * * * | ### (### is ≥75%) | # (# is ≤25%) | – | – | – | – |
| O=C(OC(C(F)(F)F)C(F)(F)F)N1CCC2(CCCN2Cc2cc(F)cc(C3(C(=O)O)CCCC3)c2)CC1 [Example 4, 1-(3-Fluoro-5-((8-(((1,1,1,3,3,3-hexafluoropropan-2-yl)oxy)carbonyl)-1,8-diazaspiro[4.5]decan-1-yl)methyl)phenyl)cyclopentane-1-carboxylic acid] | ### (### is ≥75%) | * * * | ### (### is ≥75%) | # (# is ≤25%) | – | – | – | – |
| O=C(O)C1CCN(Cc2cc(C(F)(F)F)ccc2CN2CCC3(CC2)CCN(C(=O)OC(C(F)(F)F)C(F)(F)F)C3)CC1 [Example 220, l-(2-((2-(((1,1,1,3,3,3-Hexafluoropropan-2-yl)oxy)carbonyl)-2,8-diazaspiro[4.5]decan-8-yl)methyl)-5-(trifluoromethyl)benzyl) piperidine-4-carboxylic acid] | ## (## is between 25 and 75%) | – | – | # (# is ≤25%) | ## (## is between 25 and 75%) | – | – | – |
| CC1(C(=O)O)CCCN(c2cc(C(F)(F)F)ccc2CN2CC3(CCN(C(=O)OC(C(F)(F)F)C(F)(F)F)CC3)C2)C1 (stereo not drawn) [Example 112, l-(2-((7-(((1,1,1,3,3,3-Hexafluoropropan-2-yl)oxy)carbonyl)-2,7-diazaspiro[3.5]nonan-2-yl)methyl)-5-(trifluoromethyl)phenyl)-3-methylpiperidine-3-carboxylic acid] | ### (### is ≥75%) | – | – | ## (## is between 25 and 75%) | ### (### is ≥75%) | – | – | – |
| CN(Cc1ccc(C(F)(F)F)cc1-c1nnn[nH]1)C1(C)CCN(C(=O)OC(C(F)(F)F)C(F)(F)F)CC1 [Example 24, 1,1,1,3,3,3-Hexafluoropropan-2-yl 4-((2-(1H-tetrazol-5-yl)-4-(trifluoromethyl)benzyl)(methyl)amino)-4-methylpiperidine-1-carboxylate] | ### (### is ≥75%) | * * * | – | ## (## is between 25 and 75%) | ### (### is ≥75%) | – | – | – |
| CC1(OCc2cc(CN3CCC(C(=O)O)CC3)cc(C(F)(F)F)c2)CCN(C(=O)OC(C(F)(F)F)C(F)(F)F)CC1 [Example 25, 1-(3-(((1-(((1,1,1,3,3,3-Hexafluoropropan-2-yl)oxy)carbonyl)-4-methylpiperidin-4-yl)oxy)methyl)-5-(trifluoromethyl)benzyl)piperidine-4-carboxylic acid] | ### (### is ≥75%) | * * * | ### (### is ≥75%) | ### (### is ≥75%) | – | – | – | – |
| O=C(O)C1CCN(c2cc(Cl)cc(CN3CC4(CCN(C(=O)OC(C(F)(F)F)C(F)(F)F)CC4)C3)c2)CC1 [Example 116, l-(3-Chloro-5-((7-(((1,1,1,3,3,3-hexafluoropropan-2-yl)oxy)carbonyl)-2,7-diazaspiro[3.5]nonan-2-yl)methyl)phenyl)piperidine-4-carboxylic acid] | ### (### is ≥75%) | – | – | ### (### is ≥75%) | ### (### is ≥75%) | – | – | – |
| O=C(O)C1CCN(c2cc(Cl)ccc2CN2CC3(CCN(C(=O)OC(C(F)(F)F)C(F)(F)F)CC3)C2)CC1 [Example 122, l-(5-Chloro-2-((7-(((1,1,1,3,3,3-hexafluoropropan-2-yl)oxy)carbonyl)-2,7-diazaspiro[3.5]nonan-2-yl)methyl)phenyl)piperidine-4-carboxylic acid] | ### (### is ≥75%) | – | – | # (# is ≤25%) | ### (### is ≥75%) | – | – | – |
| O=C(OC(C(F)(F)F)C(F)(F)F)N1CCC2(CCCN2Cc2ccc(C(F)(F)F)cc2C2(C(=O)O)CCCC2)CC1 [Example 7, 1-(2-((8-(((1,1,1,3,3,3-hexafluoropropan-2-yl)oxy)carbonyl)-1,8-diazaspiro[4.5]decan-1-yl)methyl)-5-(trifluoromethyl)phenyl)cyclopentane-1-carboxylic acid] | ### (### is ≥75%) | * * * | – | # (# is ≤25%) | ### (### is ≥75%) | – | – | – |
| O=C(O)C1CCCN1C1CCN(c2cc(C(F)(F)F)ccc2CN2CCCC23CCN(C(=O)OC(C(F)(F)F)C(F)(F)F)CC3)CC1 (centres unmarked) [Example 159] | ### (### is ≥75%) | – | ### (### is ≥75%) | # (# is ≤25%) | – | – | – | < 100 nM |

Now from value to compound:

| % Inh MGLL Brain (Mouse, μM) [1] | IC50 MGLL PC3 (Human, μM) ([2]; PC3 cell proteome) | % Inh MGLL PC3 (Human, μM) ([2]; PC3 cell proteome) | % Inh ABHD6 Brain (Mouse, μM) [3] | % Inh MGLL PFC (Human, μM) [2, 4] | IC50 MGLL Brain (Mouse, μM) [1] | IC50 ([2]; PC3 cell proteome, read-out: IC50 MGLL PC3 (Human)) | IC50 ([2]; prefrontal cortex (PFC) proteome, read-out: IC50 MGLL PFC (Human)) | Compound |
| --- | --- | --- | --- | --- | --- | --- | --- | --- |
| ### (### is ≥75%) | – | – | ### (### is ≥75%) | ## (## is between 25 and 75%) | – | – | – | O=C(O)CN1CC2CC1CN2c1cc(CN2CC3(CCN(C(=O)OC(C(F)(F)F)C(F)(F)F)CC3)C2)cc(C(F)(F)F)c1 (centres unmarked) [Example 129, 2-(5-{3-[(7-{[(U,l,3,3,3-Hexafluoropropan-2-yl)oxy]carbonyl}-2,7-diazaspiro[3.5]nonan-2-yl)methyl]-5-(trifluoromethyl)phenyl}-2,5-diazabicyclo[2.2.1]heptan-2-yl)acetic acid] |
| ### (### is ≥75%) | – | ### (### is ≥75%) | # (# is ≤25%) | – | – | – | – | CN(Cc1ccc(C(F)(F)F)cc1CN1CCC(C(=O)O)CC1)C1(C)CCN(C(=O)OC(C(F)(F)F)C(F)(F)F)CC1 [Example 137, l-(2-(((1-(((1,1,1,3,3,3-Hexafluoropropan-2-yl)oxy)carbonyl)-4-methylpiperidin-4-yl)(methyl)amino)methyl)-5-(trifluoromethyl)benzyl)piperidine-4-carboxylic acid] |
| ### (### is ≥75%) | – | – | ### (### is ≥75%) | ### (### is ≥75%) | * * * | – | – | O=C(OC(C(F)(F)F)C(F)(F)F)N1CCC2(CCCN2C(=O)c2ccc(Cl)cc2)CC1 [Example 13, 1,1,1,3,3,3-Hexafluoropropan-2-yl 1-(4-chlorobenzoyl)-1,8-diazaspiro[4.5]decane-8-carboxylate] |
| ### (### is ≥75%) | – | – | # (# is ≤25%) | ### (### is ≥75%) | – | – | – | CC1(C(=O)O)CN(c2cc(C(F)(F)F)ccc2CN2CC3(CCN(C(=O)OC(C(F)(F)F)C(F)(F)F)CC3)C2)CCO1 (centres unmarked) [Example 130, 4-(2-((7-(((1,1,1,3,3,3-Hexafluoropropan-2-yl)oxy)carbonyl)-2,7-diazaspiro[3.5]nonan-2-yl)methyl)-5-(trifluoromethyl)phenyl)-2-methylmorpholine-2-carboxylic acid] |
| ### (### is ≥75%) | – | ### (### is ≥75%) | # (# is ≤25%) | – | – | < 100 nM | – | CN(Cc1ccc(C(F)(F)F)cc1N1CCC(N2CCC[C@H]2C(=O)O)CC1)C1(C)CCN(C(=O)OC(C(F)(F)F)C(F)(F)F)CC1 [Example 163, (1-(2-(((1-(((1,1,1,3,3,3-Hexafluoropropan-2-yl)oxy)carbonyl)-4-methylpiperidin-4-yl)(methyl)amino)methyl)-5-(trifluoromethyl)phenyl)piperidin-4-yl)-L-proline] |
